Experimental findings from ChEMBL document CHEMBL1150750, “Modified taxols, 4. Synthesis and biological activity of taxols modified in the side chain” (J Nat Prod, 1988) are described below.

The subject of series [1] is P388. The experiment in a line: In vivo cytotoxicity against mouse P388 cells at 20 mg/kg. The series is classed as functional.
For another series, the system named is KB. The experiment in a line: Cytotoxicity against human KB cells. The series is classed as functional. To be noted: for EC50: Homo sapiens, KB, read-out: ED50 (the source's name).
In series [2] the test system is P388. In words: In vivo cytotoxicity against mouse P388 cells at 2.5 mg/kg. Type of series: functional.
For series [3], the system named is P388. The experiment in a line: In vivo cytotoxicity against mouse P388 cells at 5 mg/kg. The series is classed as functional.
Series [4] deals with P388. In words: In vivo cytotoxicity against mouse P388 cells at 10 mg/kg. Type of series: functional.
In series [5] the test system is P388. In words: In vivo cytotoxicity against mouse P388 cells at 44 mg/kg. The series is classed as functional.
The subject of series [6] is P388. In words: In vivo cytotoxicity against mouse P388 cells at 22 mg/kg. Type of series: functional.
The subject of series [7] is P388. In words: In vivo cytotoxicity against mouse P388 cells at 11 mg/kg. The series is classed as functional.
Series [8] concerns P388. The experiment in a line: In vivo cytotoxicity against mouse P388 cells at 3.25 mg/kg. The series is classed as functional.
The subject of series [9] is P388. The experiment in a line: In vivo cytotoxicity against mouse P388 cells at 26 mg/kg. The series is classed as functional.
Series [10] has as its system P388. The experiment in a line: In vivo cytotoxicity against mouse P388 cells at 6.5 mg/kg. The series is classed as functional.
The test system of series [11] is P388. The experiment in a line: In vivo cytotoxicity against mouse P388 cells at 13 mg/kg. Type of series: functional.
In series [12] the test system is P388. The experiment in a line: In vivo cytotoxicity against mouse P388 cells at 40 mg/kg. Type of series: functional.
A short description of series [13]: Stability in water assessed as decomposition to taxol after 24 hrs. The note with it: buffer. The series is classed as physicochemical.
The nature of series [14]: Chemical stability assessed as decomposition to taxol at pH 6.6 after 20 hrs. The note with it: buffer, pH 6.6, 20 h. The series is classed as physicochemical.
Series [15] is described as follows: Solubility in water by HPLC method. Type of series: physicochemical.

≈ marks a conversion by molar mass, not a printed value.

One may read the T/C as the ratio of treated to control. The term solubility denotes the concentration that dissolves in the medium under given conditions. Higher therefore signals a readily soluble substance.

`CC(=O)O[C@H]1C(=O)[C@@]2(C)[C@H]([C@H](OC(=O)c3ccccc3)[C@]3(O)C[C@H](OC(=O)[C@H](OC(C)=O)[C@@H](NC(=O)c4ccccc4)c4ccccc4)C(C)=C1C3(C)C)[C@]1(OC(C)=O)CO[C@@H]1C[C@@H]2O`: the T/C with P388 [1] was 140%; in the series with P388 [2] it was 127%; in the series on P388 [3] it was 127%; in the series on P388 [4] it was 130%. The ED50 in the series on KB was found to be 2 ×10⁻⁵ ug/ml.
With `CC(=O)O[C@H]1C(=O)[C@@]2(C)[C@H]([C@H](OC(=O)c3ccccc3)[C@]3(O)C[C@H](OC(=O)[C@H](OC(=O)CCC(=O)O)[C@@H](NC(=O)c4ccccc4)c4ccccc4)C(C)=C1C3(C)C)[C@]1(OC(C)=O)CO[C@@H]1C[C@@H]2O`, the T/C is given as 129% in the series with P388 [5], 122% in the series on P388 [6] and 112% in the series with P388 [7]. In addition, the EC50 in the series on KB was found to be 0.01 µg/mL (≈ 0.0105 µM).
As for `CC(=O)O[C@H]1C(=O)[C@@]2(C)[C@H]([C@H](OC(=O)c3ccccc3)[C@]3(O)C[C@H](OC(=O)[C@@H]4OC(=O)N(C(=O)c5ccccc5)[C@H]4c4ccccc4)C(C)=C1C3(C)C)[C@]1(OC(C)=O)CO[C@@H]1C[C@@H]2O`, the EC50 in the series with KB amounted to 0.2 µg/mL (≈ 0.227 µM).
Take `CC(=O)O[C@H]1C(=O)[C@@]2(C)[C@H]([C@H](OC(=O)c3ccccc3)[C@]3(O)C[C@H](OC(=O)[C@H](O)[C@@H](NC(=O)c4ccccc4)c4ccccc4)C(C)=C1C3(C)C)[C@]1(OC(C)=O)CO[C@@H]1C[C@@H]2O` [PACLITAXEL]: the T/C with P388 [1] worked out at 104%; with P388 [2], 147%; in the series with P388 [3], 156%; in the series with P388 [4], 137%. Moreover, the ED50 in the series with KB is recorded as 1 ×10⁻⁵ ug/ml.
Compound `CC(=O)O[C@H]1C(=O)[C@@]2(C)[C@H]([C@H](OC(=O)c3ccccc3)[C@]3(O)C[C@H](OC(=O)[C@H](OC(=O)CCNC(=O)OCc4ccccc4)[C@@H](NC(=O)c4ccccc4)c4ccccc4)C(C)=C1C3(C)C)[C@]1(OC(C)=O)CO[C@@H]1C[C@@H]2O` returned an ED50 with KB of 1 ×10⁻⁴ ug/ml.
For `CC(=O)O[C@H]1C(=O)[C@]2(C)[C@@H](OC(C)=O)C[C@H]3OC[C@@]3(OC(C)=O)[C@H]2[C@H](OC(=O)c2ccccc2)[C@]2(O)C[C@H](OC(=O)[C@H](O)[C@@H](NC(=O)c3ccccc3)c3ccccc3)C(C)=C1C2(C)C` [PACLITAXEL C7 ACETYLCARBOXYLIC ACID ESTER], in the series with KB, the EC50 is 0.004 µg/mL (≈ 0.00446 µM). For the same compound, the T/C with P388 [8] stood at 128%; in the series on P388 [9] it was 130%; in the series on P388 [10], 124%; in the series on P388 [11] it was 127%.
Take `CC(=O)O[C@H]1C(=O)[C@]2(C)[C@@H](OC(C)=O)C[C@H]3OC[C@@]3(OC(C)=O)[C@H]2[C@H](OC(=O)c2ccccc2)[C@]2(O)C[C@H](OC(=O)[C@H](OC(C)=O)[C@@H](NC(=O)c3ccccc3)c3ccccc3)C(C)=C1C2(C)C`: the T/C in the series with P388 [1] is given as 100%; in the series on P388 [12] it was 104%; in the series with P388 [4], 105%. For the same compound, the EC50 in the series on KB came to 0.2 µg/mL (≈ 0.213 µM).
Take `CC(=O)O[C@H]1C(=O)[C@@]2(C)[C@H]([C@H](OC(=O)c3ccccc3)[C@]3(O)C[C@H](OC(=O)[C@H](OC(=O)CCN)[C@@H](NC(=O)c4ccccc4)c4ccccc4)C(C)=C1C3(C)C)[C@]1(OC(C)=O)CO[C@@H]1C[C@@H]2O.O=CO`: the T/C in the series on P388 [1] is on record as 130%; in the series with P388 [12] it was 140%; in the series on P388 [4] it was 117%. This compound yielded an ED50 in the series on KB of 2 ×10⁻⁴ ug/ml. Moreover, the figures for the Stability in series [13] and in [14] were 90% and “Unstable”, respectively. Further, the concentration in solution in series [15] (solubility) was 2200 µg/mL.
As to `CC(=O)O[C@H]1C(=O)[C@@]2(C)[C@H]([C@H](OC(=O)c3ccccc3)[C@]3(O)C[C@H](OC(=O)[C@H](O[Si](C)(C)C(C)(C)C)[C@H](NC(=O)c4ccccc4)c4ccccc4)C(C)=C1C3(C)C)[C@]1(OC(C)=O)CO[C@@H]1C[C@@H]2O`, the EC50 in the series with KB was 0.3 µg/mL (≈ 0.31 µM).
